Several values for one entry are separate records, joined by “and”; a condition that tells them apart may be missing. Equal values may be shown once. Inconclusive results and toxic doses are left out. No stated cut-off is given here; in the data, active means T/C of 150% or more; inactive means T/C below 125%.
Test system: L1210 leukemia ip in BDF1 mice, survival T/C
Assay: NCI In Vivo Anticancer Drug Screen. Data for tumor model L1210 Leukemia (intraperitoneal) in B6D2F1 (BDF1) mice
Details: endpoint: mean survival time, higher = longer survival
How it was run: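 Transplantable tumor model; survival measured in treated vs vehicle control mice. Value = treated/control.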

[1] = dose: 100.0 mg/kg/injection, schedule: Q01DX009 (ip), vehicle: saline with Tween-80
[2] = dose: 200.0 mg/kg/injection, schedule: Q01DX009 (ip), vehicle: saline with Tween-80
[3] = dose: 400.0 mg/kg/injection, schedule: Q01DX009 (ip), vehicle: saline with Tween-80
[4] = dose: 100.0 mg/kg/injection, schedule: Q04DX002 (ip), vehicle: Klucel (hydroxypropylcellulose) (HPC)
[5] = dose: 200.0 mg/kg/injection, schedule: Q04DX002 (ip), vehicle: Klucel (hydroxypropylcellulose) (HPC)
[6] = dose: 400.0 mg/kg/injection, schedule: Q04DX002 (ip), vehicle: Klucel (hydroxypropylcellulose) (HPC)
[7] = dose: 6.25 mg/kg/injection, schedule: Q04DX003 (ip), vehicle: saline
[8] = dose: 12.5 mg/kg/injection, schedule: Q04DX003 (ip), vehicle: saline
[9] = dose: 100.0 mg/kg/injection, schedule: Q01DX001 (ip), vehicle: saline
[10] = dose: 200.0 mg/kg/injection, schedule: Q01DX001 (ip), vehicle: saline
[11] = dose: 400.0 mg/kg/injection, schedule: Q01DX001 (ip), vehicle: saline
[12] = dose: 25.0 mg/kg/injection, schedule: Q04DX003 (ip), vehicle: saline
[13] = dose: 50.0 mg/kg/injection, schedule: Q01DX001 (ip), vehicle: saline

Measured: T/C

COc1ccc(NC(=O)CC#N)cc1
inactive: dose: 100.0 mg/kg/injection, schedule: Q01DX001 (ip), vehicle: Klucel (hydroxypropylcellulose) (HPC) 101 % of control | dose: 200.0 mg/kg/injection, schedule: Q01DX001 (ip), vehicle: Klucel (hydroxypropylcellulose) (HPC) 95 % of control

CCCCOCN(C(=O)CCl)c1c(CC)cccc1CC
inactive: [1] 101 % of control | [2] 110 % of control | [3] 89 % of control

O=S(=O)(Cc1cccc(Cl)c1)c1ccccc1
inactive: [4] 96 % of control | [5] 107 % of control | [6] 104 % of control

CSc1nsc(N)n1
inactive: dose: 75.0 mg/kg/injection, schedule: Q01DX001 (ip), vehicle: other 102 % of control | dose: 100.0 mg/kg/injection, schedule: Q04DX003 (ip), vehicle: Klucel (hydroxypropylcellulose) (HPC) 100 % of control | dose: 150.0 mg/kg/injection, schedule: Q01DX001 (ip), vehicle: other 100 % of control | dose: 200.0 mg/kg/injection, schedule: Q04DX003 (ip), vehicle: Klucel (hydroxypropylcellulose) (HPC) 100 % of control | dose: 300.0 mg/kg/injection, schedule: Q01DX001 (ip), vehicle: other 103 % of control | dose: 400.0 mg/kg/injection, schedule: Q04DX003 (ip), vehicle: Klucel (hydroxypropylcellulose) (HPC) 107 % of control

CCN(CCO)c1ccc(N)cc1C
inactive: dose: 0.5 mg/kg/injection, schedule: Q04DX003 (ip), vehicle: saline 97 % of control | dose: 1.0 mg/kg/injection, schedule: Q04DX003 (ip), vehicle: saline 95 % of control | dose: 2.0 mg/kg/injection, schedule: Q04DX003 (ip), vehicle: saline 97 % of control | [7] 88 % of control | [8] 102 % of control

CC(=O)N1Cc2c(N)ncnc2C1C (stereo not given)
inactive: [9] 100 % of control | [10] 108 % of control | [11] 114 % of control

CCOC(=S)SCC(=O)c1ccc(Br)cc1
inactive: [4] 101 % of control | [5] 92 % of control | [6] 86 % of control

CC(C)CC(NC(=O)CNC(=O)OCc1ccccc1)C(=O)OCc1ccccc1 (stereo not given)
inactive: dose: 100.0 mg/kg/injection, schedule: Q04DX003 (ip), vehicle: other 100 % of control | dose: 200.0 mg/kg/injection, schedule: Q04DX003 (ip), vehicle: other 108 % of control | dose: 400.0 mg/kg/injection, schedule: Q04DX003 (ip), vehicle: other 102 % of control

O=[N+]([O-])c1cccnc1Oc1cc(Cl)c(Cl)cc1Cl
inactive: [1] 107 % of control | dose: 100.0 mg/kg/injection, schedule: Q04DX003 (ip), vehicle: saline with Tween-80 102 % of control | [2] 107 % of control | dose: 200.0 mg/kg/injection, schedule: Q04DX003 (ip), vehicle: saline with Tween-80 93 % of control | [3] 100 % of control | dose: 400.0 mg/kg/injection, schedule: Q04DX003 (ip), vehicle: saline with Tween-80 91 % of control

O=C(Nc1nccs1)Nc1ccccc1C(F)(F)F
inactive: [1] 100 % of control | [2] 106 % of control | [3] 92 % of control

CC(C)N1CN(C(C)C)CN(C(C)C)C1
inactive: dose: 25.0 mg/kg/injection, schedule: Q01DX009 (ip), vehicle: saline 103 % of control | [12] 99 % of control | dose: 50.0 mg/kg/injection, schedule: Q01DX009 (ip), vehicle: saline 93 % of control | dose: 50.0 mg/kg/injection, schedule: Q04DX003 (ip), vehicle: saline 99 % of control | dose: 100.0 mg/kg/injection, schedule: Q04DX003 (ip), vehicle: saline 87 % of control

CCCC#CCOCC(O)CCl (stereo not given)
inactive: dose: 100.0 mg/kg/injection, schedule: Q01DX009 (ip), vehicle: saline sonified 105 % of control | dose: 100.0 mg/kg/injection, schedule: Q04DX003 (ip), vehicle: saline sonified 91 % of control | dose: 200.0 mg/kg/injection, schedule: Q01DX009 (ip), vehicle: saline sonified 101 % of control | dose: 200.0 mg/kg/injection, schedule: Q04DX003 (ip), vehicle: saline sonified 94 % of control | dose: 400.0 mg/kg/injection, schedule: Q01DX009 (ip), vehicle: saline sonified 105 % of control | dose: 400.0 mg/kg/injection, schedule: Q04DX003 (ip), vehicle: saline sonified 94 % of control

Cc1c2cnccc2c(C)c2c1c1ccccc1n2CCCN
inactive: [7] 97 % of control | [8] 97 % of control | dose: 25.0 mg/kg/injection, schedule: Q01DX001 (oral), vehicle: saline 96 % of control | [12] 89 % of control | dose: 50.0 mg/kg/injection, schedule: Q01DX001 (oral), vehicle: saline 100 % of control | dose: 75.0 mg/kg/injection, schedule: Q01DX001 (oral), vehicle: saline 105 % of control | dose: 100.0 mg/kg/injection, schedule: Q01DX001 (oral), vehicle: saline 86 % of control | dose: 200.0 mg/kg/injection, schedule: Q01DX001 (oral), vehicle: saline 96 % of control

CCCCCCCCCCSc1ncnc2c1ncn2CO
inactive: [13] 91 % of control | [9] 101 % of control | [10] 117 % of control | [11] 120 % of control

O=C(CCCC(=O)N/N=C/c1cccc(I)c1)N/N=C\c1cccc(I)c1
inactive: [13] 100 % of control | [9] 100 % of control | [10] 100 % of control | [11] 97 % of control

OC(COc1cccc2ccccc12)CN1CC=C(c2ccccc2)CC1 (stereo not given)
inactive: dose: 12.5 mg/kg/injection, schedule: Q01DX009 (ip), vehicle: Klucel (hydroxypropylcellulose) (HPC) 103 % of control | dose: 25.0 mg/kg/injection, schedule: Q01DX009 (ip), vehicle: Klucel (hydroxypropylcellulose) (HPC) 100 % of control | dose: 50.0 mg/kg/injection, schedule: Q01DX009 (ip), vehicle: Klucel (hydroxypropylcellulose) (HPC) 101 % of control | dose: 100.0 mg/kg/injection, schedule: Q01DX009 (ip), vehicle: Klucel (hydroxypropylcellulose) (HPC) 100 % of control

CCCN(CCC#N)CN1C(=O)c2ccccc2C1=O
inactive: dose: 100.0 mg/kg/injection, schedule: Q01DX001 (ip), vehicle: carboxymethylcellulose (CMC) 110 % of control | dose: 100.0 mg/kg/injection, schedule: Q01DX009 (ip), vehicle: carboxymethylcellulose (CMC) 90 % of control | dose: 100.0 mg/kg/injection, schedule: Q04DX002 (ip), vehicle: carboxymethylcellulose (CMC) 98 % of control and 100 % of control | dose: 100.0 mg/kg/injection, schedule: Q04DX003 (ip), vehicle: carboxymethylcellulose (CMC) 95 % of control | dose: 200.0 mg/kg/injection, schedule: Q01DX001 (ip), vehicle: carboxymethylcellulose (CMC) 113 % of control | dose: 200.0 mg/kg/injection, schedule: Q01DX009 (ip), vehicle: carboxymethylcellulose (CMC) 93 % of control | dose: 200.0 mg/kg/injection, schedule: Q04DX002 (ip), vehicle: carboxymethylcellulose (CMC) 94 % of control and 102 % of control | dose: 200.0 mg/kg/injection, schedule: Q04DX003 (ip), vehicle: carboxymethylcellulose (CMC) 101 % of control | dose: 400.0 mg/kg/injection, schedule: Q01DX001 (ip), vehicle: carboxymethylcellulose (CMC) 97 % of control | dose: 400.0 mg/kg/injection, schedule: Q01DX009 (ip), vehicle: carboxymethylcellulose (CMC) 100 % of control | dose: 400.0 mg/kg/injection, schedule: Q04DX002 (ip), vehicle: carboxymethylcellulose (CMC) 94 % of control and 97 % of control | dose: 400.0 mg/kg/injection, schedule: Q04DX003 (ip), vehicle: carboxymethylcellulose (CMC) 107 % of control

Source: PubChem BioAssay AID248 (DTP/NCI, 2004)
